Laboratory results: the NIST ThermoML archive (doi:10.1016/j.jct.2008.09.002)

What was measured:
[1] = molar heat capacity at constant pressure; xn = mol fraction of the nth substance listed; conditions: 101.3 kPa, Liquid, Small sample (50 mg) DSC
[2] = xn = mol fraction of the nth substance listed; conditions: 101.3 kPa, Liquid, Vibrating tube method

C[N+](=O)[O-] [nitromethane] + CCCCn1cc[n+](C)c1.F[B-](F)(F)F
Conditions	mass density [kg/m3]	molar heat capacity at constant pressure [J/K/mol]
[1], 293.15 K, x2 = 0.0525	–	119.2
[1], 293.15 K, x2 = 0.1029	–	131.6
[1], 293.15 K, x2 = 0.1943	–	154.9
[1], 293.15 K, x2 = 0.2941	–	180.5
[1], 293.15 K, x2 = 0.3911	–	205.4
[1], 293.15 K, x2 = 0.5609	–	248.8
[1], 293.15 K, x2 = 0.7062	–	285.8
[1], 293.15 K, x2 = 0.7578	–	299
[1], 293.15 K, x2 = 0.897	–	334.5
[1], 293.15 K, x2 = 0.9436	–	346.4
[1], 293.15 K, x2 = 0.9716	–	353.6
[1], 298.15 K, x2 = 0.0525	–	119.6
[1], 298.15 K, x2 = 0.1029	–	132.1
[1], 298.15 K, x2 = 0.1943	–	155.6
[1], 298.15 K, x2 = 0.2941	–	181.5
[1], 298.15 K, x2 = 0.3911	–	206.7
[1], 298.15 K, x2 = 0.5609	–	250.6
[1], 298.15 K, x2 = 0.7062	–	288.1
[1], 298.15 K, x2 = 0.7578	–	301.4
[1], 298.15 K, x2 = 0.897	–	337.4
[1], 298.15 K, x2 = 0.9436	–	349.5
[1], 298.15 K, x2 = 0.9716	–	356.7
[1], 303.15 K, x2 = 0.0525	–	120
[1], 303.15 K, x2 = 0.1029	–	132.7
[1], 303.15 K, x2 = 0.1943	–	156.4
[1], 303.15 K, x2 = 0.2941	–	182.5
[1], 303.15 K, x2 = 0.3911	–	208
[1], 303.15 K, x2 = 0.5609	–	252.3
[1], 303.15 K, x2 = 0.7062	–	290.2
[1], 303.15 K, x2 = 0.7578	–	303.7
[1], 303.15 K, x2 = 0.897	–	340
[1], 303.15 K, x2 = 0.9436	–	352.3
[1], 303.15 K, x2 = 0.9716	–	359.5
[1], 308.15 K, x2 = 0.0525	–	120.5
[1], 308.15 K, x2 = 0.1029	–	133.3
[1], 308.15 K, x2 = 0.1943	–	157.1
[1], 308.15 K, x2 = 0.2941	–	183.3
[1], 308.15 K, x2 = 0.3911	–	209.1
[1], 308.15 K, x2 = 0.5609	–	253.8
[1], 308.15 K, x2 = 0.7062	–	292.1
[1], 308.15 K, x2 = 0.7578	–	305.6
[1], 308.15 K, x2 = 0.897	–	342.3
[1], 308.15 K, x2 = 0.9436	–	354.7
[1], 308.15 K, x2 = 0.9716	–	362
[1], 313.15 K, x2 = 0.0525	–	121
[1], 313.15 K, x2 = 0.1029	–	133.9
[1], 313.15 K, x2 = 0.1943	–	157.8
[1], 313.15 K, x2 = 0.2941	–	184.1
[1], 313.15 K, x2 = 0.3911	–	210.1
[1], 313.15 K, x2 = 0.5609	–	255.1
[1], 313.15 K, x2 = 0.7062	–	293.7
[1], 313.15 K, x2 = 0.7578	–	307.3
[1], 313.15 K, x2 = 0.897	–	344.2
[1], 313.15 K, x2 = 0.9436	–	356.8
[1], 313.15 K, x2 = 0.9716	–	364.1
[1], 318.15 K, x2 = 0.0525	–	121.4
[1], 318.15 K, x2 = 0.1029	–	134.3
[1], 318.15 K, x2 = 0.1943	–	158.3
[1], 318.15 K, x2 = 0.2941	–	184.7
[1], 318.15 K, x2 = 0.3911	–	210.9
[1], 318.15 K, x2 = 0.5609	–	256.2
[1], 318.15 K, x2 = 0.7062	–	295.1
[1], 318.15 K, x2 = 0.7578	–	308.7
[1], 318.15 K, x2 = 0.897	–	345.9
[1], 318.15 K, x2 = 0.9436	–	358.5
[1], 318.15 K, x2 = 0.9716	–	365.8
[2], 293.15 K, x2 = 0.1007	1167	–
[2], 293.15 K, x2 = 0.2066	1181.1	–
[2], 293.15 K, x2 = 0.2597	1185.9	–
[2], 293.15 K, x2 = 0.3069	1189.3	–
[2], 293.15 K, x2 = 0.3957	1194.4	–
[2], 293.15 K, x2 = 0.41	1195	–
[2], 293.15 K, x2 = 0.4866	1198.1	–
[2], 293.15 K, x2 = 0.5058	1198.7	–
[2], 293.15 K, x2 = 0.6016	1201.5	–
[2], 293.15 K, x2 = 0.6455	1202.6	–
[2], 293.15 K, x2 = 0.6837	1203.4	–
[2], 293.15 K, x2 = 0.7793	1205.1	–
[2], 293.15 K, x2 = 0.8867	1206.5	–
[2], 298.15 K, x2 = 0.1007	1161.3	–
[2], 298.15 K, x2 = 0.2066	1176.1	–
[2], 298.15 K, x2 = 0.2597	1181.1	–
[2], 298.15 K, x2 = 0.3069	1184.7	–
[2], 298.15 K, x2 = 0.3957	1190	–
[2], 298.15 K, x2 = 0.41	1190.6	–
[2], 298.15 K, x2 = 0.4866	1193.9	–
[2], 298.15 K, x2 = 0.5058	1194.6	–
[2], 298.15 K, x2 = 0.6016	1197.5	–
[2], 298.15 K, x2 = 0.6455	1198.6	–
[2], 298.15 K, x2 = 0.6837	1199.5	–
[2], 298.15 K, x2 = 0.7793	1201.3	–
[2], 298.15 K, x2 = 0.8867	1202.9	–
[2], 303.15 K, x2 = 0.1007	1155.7	–
[2], 303.15 K, x2 = 0.2066	1171.1	–
[2], 303.15 K, x2 = 0.2597	1176.4	–
[2], 303.15 K, x2 = 0.3069	1180.1	–
[2], 303.15 K, x2 = 0.3957	1185.6	–
[2], 303.15 K, x2 = 0.41	1186.3	–
[2], 303.15 K, x2 = 0.4866	1189.7	–
[2], 303.15 K, x2 = 0.5058	1190.4	–
[2], 303.15 K, x2 = 0.6016	1193.5	–
[2], 303.15 K, x2 = 0.6455	1194.7	–
[2], 303.15 K, x2 = 0.6837	1195.6	–
[2], 303.15 K, x2 = 0.7793	1197.5	–
[2], 303.15 K, x2 = 0.8867	1199.2	–
[2], 308.15 K, x2 = 0.1007	1150	–
[2], 308.15 K, x2 = 0.2066	1166	–
[2], 308.15 K, x2 = 0.2597	1171.5	–
[2], 308.15 K, x2 = 0.3069	1175.4	–
[2], 308.15 K, x2 = 0.3957	1181.2	–
[2], 308.15 K, x2 = 0.41	1181.9	–
[2], 308.15 K, x2 = 0.4866	1185.5	–
[2], 308.15 K, x2 = 0.5058	1186.3	–
[2], 308.15 K, x2 = 0.6016	1189.5	–
[2], 308.15 K, x2 = 0.6455	1190.8	–
[2], 308.15 K, x2 = 0.6837	1191.7	–
[2], 308.15 K, x2 = 0.7793	1193.7	–
[2], 308.15 K, x2 = 0.8867	1195.6	–
[2], 313.15 K, x2 = 0.1007	1144.4	–
[2], 313.15 K, x2 = 0.2066	1161.1	–
[2], 313.15 K, x2 = 0.2597	1166.8	–
[2], 313.15 K, x2 = 0.3069	1170.9	–
[2], 313.15 K, x2 = 0.3957	1176.9	–
[2], 313.15 K, x2 = 0.41	1177.6	–
[2], 313.15 K, x2 = 0.4866	1181.4	–
[2], 313.15 K, x2 = 0.5058	1182.2	–
[2], 313.15 K, x2 = 0.6016	1185.5	–
[2], 313.15 K, x2 = 0.6455	1186.9	–
[2], 313.15 K, x2 = 0.6837	1187.9	–
[2], 313.15 K, x2 = 0.7793	1190	–
[2], 313.15 K, x2 = 0.8867	1191.9	–
[2], 318.15 K, x2 = 0.1007	1138.7	–
[2], 318.15 K, x2 = 0.2066	1156.1	–
[2], 318.15 K, x2 = 0.2597	1162.1	–
[2], 318.15 K, x2 = 0.3069	1166.3	–
[2], 318.15 K, x2 = 0.3957	1172.5	–
[2], 318.15 K, x2 = 0.41	1173.3	–
[2], 318.15 K, x2 = 0.4866	1177.2	–
[2], 318.15 K, x2 = 0.5058	1178	–
[2], 318.15 K, x2 = 0.6016	1181.6	–
[2], 318.15 K, x2 = 0.6455	1183	–
[2], 318.15 K, x2 = 0.6837	1184	–
[2], 318.15 K, x2 = 0.7793	1186.3	–
[2], 318.15 K, x2 = 0.8867	1188.3	–
